This is an account of results in PubChem BioAssay AID1645867 (Buhrlage Lab, Dana-Farber Cancer Institute and Novartis …, 2021).

Active and inactive are the calls of the source. No rule for the calls is given here. Numbered stars: 1 amine (or outer) side, 2 acyl side, 3 side chain; on linkers, the order of the positions; unused ones are H or OH. Square brackets hold non-standard residues; d marks the D form. Peptide text beside a SMILES is read from it. ξ: configuration not given here. ξβ3hGly(undecyl) = CCCCCCCCCCCC(CC(=O)[*:2])N[*:1]

This assay deals with Ubiquitin carboxyl-terminal hydrolase isozyme L1 (Homo sapiens) (UniProt P09936). As to the kind of experiment: UCH-L1 deubiquitylase inhibitors, biochemical concentration-response, hit retest (AID 1645867). The settings on record: recombinant UCHL1 deubiquitinase activity assay.
Sequence of Ubiquitin carboxyl-terminal hydrolase isozyme L1 (Homo sapiens) (P09936 whole entry, looked up): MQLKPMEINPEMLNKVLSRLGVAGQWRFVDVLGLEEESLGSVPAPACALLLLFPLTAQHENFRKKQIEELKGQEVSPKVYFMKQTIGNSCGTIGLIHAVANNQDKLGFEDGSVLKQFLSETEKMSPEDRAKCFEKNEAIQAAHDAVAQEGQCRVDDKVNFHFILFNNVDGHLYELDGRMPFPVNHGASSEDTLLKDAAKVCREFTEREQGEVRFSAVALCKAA
As to `O=c1c2cc(Br)ccc2[nH]c(=S)n1Cc1cccnc1`, the IC50 was > 25 µM (inactive).
`CCOc1ccc(-c2nnc(NC(=O)C3CCN(S(=O)(=O)c4ccc5c(c4)CCC5)CC3)o2)cc1`: the IC50 was > 25 µM (inactive).
Regarding `CCCCCC(O)c1c(O)cc2c(c1O)C(=O)c1c(O)cc(O)cc1C2=O` (configuration not stated), the IC50 was > 25 µM (inactive).
Take `O=C(Nc1cnc(-c2cccc(Cl)c2)nc1)C1CCC1`: the IC50 is > 25 µM (inactive).
On to `N#Cc1c(-c2ccc(Cl)cc2)ccn2nc(CCC(=O)O)nc12`, for which the IC50 was > 25 µM (inactive).
As for `Cc1cccc(NC(=O)N2C[C@@H]3c4nccn4-c4ccccc4[C@@H]3C2)c1`, the IC50 is > 25 µM (inactive).
In the case of `CCCCCCCCCCCC1CC(=O)NC(CC(N)=O)C(=O)NC(Cc2ccc(O)cc2)C(=O)NC(CC(N)=O)C(=O)NC(CCC(N)=O)C(=O)N2CCCC2C(=O)NC(CC(N)=O)C(=O)NC(CO)C(=O)N1` (stereo not drawn) (cyclo([ξβ3hGly(undecyl)]NYNQPNS); configuration not given here), the IC50 is > 25 µM (inactive).
As to `Cc1ccccc1CCNCc1c(C(=O)O)n(Cc2ccc(Cl)cc2)c2ccccc12`, the IC50 is > 25 µM (inactive).
As for `Cc1cc2nc(N3CCN(C(=O)c4ccccc4)CC3)c3ccccc3n2n1`, the figure is > 25 µM (inactive); as for `c1ccc(-c2ccc(NCc3ccc4c(c3)OCO4)nn2)cc1`, > 25 µM (inactive); as for `COc1ccc(C)cc1NC(=O)COc1ncnc2ccccc12`, > 25 µM (inactive).
`COc1cc(NC(=O)c2ccc3c(c2)OCO3)ccc1-c1cc2ccccc2oc1=O`: the IC50 was > 25 µM (inactive).
As for `O=C(Nc1cccc(Br)c1)c1cc(-c2cccnc2)n[nH]1`, the figure is > 25 µM (inactive); as for `CC(C)NC(=O)Cn1ccn2nc(-c3ccc(Cl)cc3)cc2c1=O`, > 25 µM (inactive); as for `Cc1c(Cl)cccc1NC(=O)Cn1cc(C(=O)C2CC2)c2ccccc21`, > 25 µM (inactive).
On to `Cc1c(-c2nsc(NC(=O)c3ccc(Cl)cc3)n2)nnn1-c1ccccc1F`, for which the IC50 was > 25 µM (inactive).
As to `Brc1ccc(Sc2cnns2)cc1`, the IC50 is > 25 µM (inactive).
In the case of `Cc1ccc(N2CC(c3nc4ccccc4n3CCOc3cccc(C)c3)CC2=O)cc1` (configuration not stated), the IC50 was > 25 µM (inactive).
Turning to `O=C(NCCc1nc2ccccc2n1Cc1ccccc1F)c1ccco1`, the IC50 is > 25 µM (inactive).
For the molecule `Cc1ccc(S(=O)(=O)N2CCCCC2)cc1NC(=O)c1ccc(C#N)cc1`, the IC50 is > 25 µM (inactive).
As for `COc1ccc(-c2noc(-c3nnn(CC(=O)Nc4ccc(OC)cc4OC)c3N)n2)cc1`, the figure is > 25 µM (inactive); as for `O=C(COc1ccc(N2CC(C(=O)NCc3ccc4c(c3)OCO4)CC2=O)cc1)Nc1ccc(F)cc1` (configuration not stated), > 25 µM (inactive).
For the molecule `O=C(Cn1nc2c3c4c(sc3ncn2c1=O)CCCCC4)Nc1ccc(Cl)cc1F`, the IC50 is > 25 µM (inactive).
With `Cc1ccc2cc(-c3noc(CCC(=O)NC4CCCC4)n3)c(=O)[nH]c2c1`, the IC50 is > 25 µM (inactive).
As for `Cc1oncc1C(=O)N1CC[C@H]2CO[C@H](CN3CCOCC3)[C@H]2C1`, the figure is > 25 µM (inactive); as for `CCc1ccccc1NC(=O)Cn1c(SCc2ccc(F)cc2)nc2cccnc21`, > 25 µM (inactive); as for `O=C(Nc1ccc(C(F)(F)F)cc1)C1CC(=O)N(c2ccc3c(c2)OCCO3)C1` (configuration not stated), > 25 µM (inactive).
As for `COc1ccc(NC(=O)Cn2c(=O)n(-c3ccc(CC(=O)NCc4ccco4)cc3)c(=O)c3ccccc32)cc1Cl`, the figure is > 25 µM (inactive).
Regarding `CCCC1(c2ccccc2)NC(=O)N(Cc2ccc(Cl)cc2)C1=O` (configuration not stated), the IC50 was > 25 µM (inactive).
As for `Cc1nn(-c2ccc(F)cc2)c(C)c1S(=O)(=O)N1CCN(c2ccccn2)CC1`, the IC50 was > 25 µM (inactive).
As for `O=C(CSc1nc2cc(C(F)(F)F)ccc2s1)NCC(=O)c1ccccc1`, the figure is > 25 µM (inactive).
As for `Cc1ccc(C(=O)c2cn(CC(=O)Nc3ccc4c(c3)OCO4)c3ccccc3c2=O)cc1`, the IC50 was > 25 µM (inactive).
Take `CC[C@@H]1[C@@H](C)O[C@@](O)([C@@H](C)[C@H](O)[C@H](C)[C@H]2OC(=O)/C=C/C=C/[C@H](C)[C@@H]([C@@H](C)[C@@H](O)[C@H](C)[C@@]3(O)C[C@@H](O[C@H]4C[C@H](O)[C@H](O)[C@H](C)O4)[C@H](CC)[C@@H](C)O3)OC(=O)/C=C/C=C/[C@@H]2C)C[C@H]1O[C@H]1C[C@H](O)[C@H](O)[C@H](C)O1`: the IC50 was > 25 µM (inactive).
With `COc1ccc(CNC(=O)Nc2cccc3ccccc23)cc1`, the IC50 was > 25 µM (inactive).
As for `O=C(c1cccc2ncccc12)N1CCN(c2ccnc3cc(Cl)ccc23)CC1`, the IC50 was > 25 µM (inactive).
Take `Cc1sc(N)nc1-c1ccc(C(C)(C)C)cc1`: the IC50 was > 25 µM (inactive).
As for `CC(C)C(=O)Nc1nc2cc(NS(=O)(=O)c3ccccc3)ccc2s1`, the IC50 is > 25 µM (inactive).
As to `COc1ccc2c(C)c(CC(=O)N3CCC[C@H]3C(=O)O)c(=O)oc2c1C`, the IC50 was > 25 µM (inactive).
With `O=C(Cn1c(=O)n(Cc2ccccc2)c(=O)c2ncccc21)NCc1ccccc1Cl`, the IC50 is > 25 µM (inactive).
As for `O=C(COc1ccc(Cl)cc1Cl)Nc1ccccc1-c1nc2ccccc2[nH]1`, the figure is > 25 µM (inactive).
`Cc1ccc(Cn2c(=O)c(C#N)c3n(c2=O)CCC3)cc1`: the IC50 is > 25 µM (inactive).
As to `CCc1ccc(NC(=O)Cc2nnc3cc(-c4nc(C)no4)ccn23)cc1`, the IC50 was > 25 µM (inactive).

One may read the IC50 as the concentration at which inhibition is half-maximal.
